Measured values: patent publication US7585895B2, “Therapeutic substituted cyclopentanes” (Allergan, Inc., priority 2005, dated 2009)

Target: T1, hIP (Homo sapiens, UniProt P43119)
T1 construct: expressed in transfected cells
Experiment: FLIPR calcium signal, IP
Format: cell-based
Conditions: HEK-293(EBNA)
Method: HEK-293(EBNA) cells, stably expressing one type or subtype of recombinant human prostaglandin receptors (prostaglandin receptors expressed: hDP/Gqs5; hEP1; hEP2/Gqs5; hEP3A/Gqi5; hEP4/Gqs5; hFP; hIP; hTP), were cultured in 100 mm culture dishes in high-glucose DMEM medium containing 10% fetal bovine serum, 2 mM 1-glutamine, 250 μg/ml geneticin (G418) and 200 μg/ml hygromycin B as selection markers, and 100 units/ml penicillin G, 100 μg/ml streptomycin and 0.25 μg/ml amphotericin B.
Cells were seeded at a density of 5×10^4 cells per well in Biocoat® Poly-D-lysine-coated black-wall, clear-bottom 96-well plates (Becton-Dickinson) and allowed to attach overnight in an incubator at 37° C. Cells were then washed two times with HBSS-HEPES buffer (Hanks Balanced Salt Solution without bicarbonate and phenol red, 20 mM HEPES, pH 7.4) using a Denley Cellwash plate washer (Labsystems). After 45 minutes of dye-loading in the dark, using the calcium-sensitive dye Fluo-4 AM at a final concentration of 2 μM, plates were washed four times with HBSS-HEPES buffer to remove excess dye leaving 100 μl in each well. Plates were re-equilibrated to 37° C. for a few minutes.
Cells were excited with an Argon laser at 488 nm, and emission was measured through a 510-570 nm bandwidth emission filter (FLIPR™, Molecular Devices, Sunnyvale, Calif.). Drug solution was added in a 50 μl volume to each well to give the desired final concentration. The peak increase in fluorescence intensity was recorded for each well. On each plate, four wells each served as negative (HBSS-HEPES buffer) and positive controls (standard agonists: BW245C (hDP); PGE2 (HEP1; hEP2/Gqs5; hEP3A/Gqi5; hEP4/Gqs5); PGF2α (hFP); carbacyclin (hIP); U-46619 (hTP), depending on receptor). The peak fluorescence change in each drug-containing well was then expressed relative to the controls.
Compounds were tested in a high-throughput (HTS) or concentration-response (CoRe) format. In the HTS format, forty-four compounds per plate were examined in duplicates at a concentration of 10^−5 M. To generate concentration-response curves, four compounds per plate were tested in duplicates in a concentration range between 10^−5 and 10^−11 M. The duplicate values were averaged. In either, HTS or CoRe format each compound was tested on at least 3 separate plates using cells from different passages to give an n≧3.

T1 sequence (P43119 whole entry): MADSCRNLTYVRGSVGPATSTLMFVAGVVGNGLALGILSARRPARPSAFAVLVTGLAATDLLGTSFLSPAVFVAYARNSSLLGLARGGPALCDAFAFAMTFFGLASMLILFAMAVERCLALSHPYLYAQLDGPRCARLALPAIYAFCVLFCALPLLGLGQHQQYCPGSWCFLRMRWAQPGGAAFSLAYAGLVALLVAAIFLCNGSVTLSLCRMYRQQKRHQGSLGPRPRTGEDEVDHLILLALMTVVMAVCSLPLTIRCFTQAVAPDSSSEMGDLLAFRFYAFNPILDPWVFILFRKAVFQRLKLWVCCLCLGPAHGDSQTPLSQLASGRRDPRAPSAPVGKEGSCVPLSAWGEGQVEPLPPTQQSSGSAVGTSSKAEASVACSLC

Structure (SMILES)	Ca2+ Signal-EC50 (nM) IP	EC50 (read-out: Ca2+ Signal-EC50 (nM) IP)
CCCCCC(O)C(C)(C)c1ccc([C@@H]2[C@@H](C/C=C\CCCC(=O)O)[C@H](Cl)C[C@H]2O)cc1 (stereo partly drawn) [Entry 31, (Z)-7-{(1R,2S,3R,5R)-5-Chloro-3-hydroxy-2-[4-(2-hydroxy-1,1-dimethyl-heptyl)-phenyl]-cyclopentyl}-hept-5-enoic acid]	not active	
CCCCCCc1ccc([C@@H]2[C@@H](C/C=C\CCCC(=O)O)[C@H](Cl)C[C@H]2O)cc1 [Entry 33, (Z)-7-[(1R,2S,3R,5R)-5-Chloro-2-(4-hexyl-phenyl)-3-hydroxy-cyclopentyl]-hept-5-enoic acid]	not active	
CCCCCC(O)c1ccc([C@@H]2[C@@H](C/C=C\CCCC(=O)O)[C@H](Cl)C[C@@H]2O)cc1 (stereo partly drawn) [Entry 34, (Z)-7-{(1R,2S,3S,5R)-5-Chloro-3-hydroxy-2-[4-(1-hydroxy-hexyl)-phenyl]-cyclopentyl}-hept-5-enoic acid]		3280 nM
